Assay results: ChEMBL document CHEMBL1148571, “Synthesis of 131I-labeled glucose-conjugated inhibitors of O6-methylguanine-DNA methyltransferase (MGMT) and comparison with nonconjugated inhibitors as potential tools for in vivo MGMT imaging” (J Med Chem, 2006)

Molecular target: T1, Methylated-DNA--protein-cysteine methyltransferase (Homo sapiens) (UniProt P16455)
T1 sequence (whole entry): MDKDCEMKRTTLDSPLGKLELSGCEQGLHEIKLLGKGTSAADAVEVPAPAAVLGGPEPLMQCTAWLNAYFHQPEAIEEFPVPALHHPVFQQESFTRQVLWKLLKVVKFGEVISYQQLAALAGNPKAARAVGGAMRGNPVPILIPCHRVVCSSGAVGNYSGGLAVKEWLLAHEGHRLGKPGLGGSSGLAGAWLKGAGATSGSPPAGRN
Assay: Binding to human MGMT
Conditions: tested as the 131I-labelled form

| SMILES | Activity [%] |
| --- | --- |
| Nc1nc(OCc2cccc(I)c2)c2[nH]cnc2n1 | 97 |
| Nc1nc(OCc2ccc(I)s2)c2[nH]cnc2n1 | 80 |
